# Measurements: patent US9987329B2, “Methods for treating peripheral nerve damage” (Cornell University, priority 2014, dated 2018)
# Experiments:
# [1] = system: trigeminal ganglion (TG) neuronal cells; assay: Inhibition of VEGF-B induced neurite growth in TG neurons; type: cell-based, mouse; settings: 3 days
# Procedure: (§1) Trigeminal ganglion (TG) neuronal cells were obtained and cultured as described previously. Pan, Z., Fukuoka et al., FASEB J. 27, 2756-2767 (2013). To evaluate the effect of VEGF-B on neuronal growth, TG neuronal cells were treated with 10-100 ng/ml recombinant mouse VEGF-B^186 (R&D 767-VE-010). The VEGF-B treatments were replenished every other day. Neurite formation and growth was followed up to 3 days. […] VEGF receptors were inhibited by using neutralizing antibodies against VEGFR1 (R&D AF471), VEGFR2 (R&D MAB4431) and Neuropilin 1 (NRP1) (R&D MAB566). TG cells were incubated in a dose dependent manner with anti-VEGFR1, anti-VEGFR2 or anti-NRP1 for 1 hour prior to the addition of 50 ng/ml VEGF-B. The tyrosine kinase domains of VEGFR2 were inhibited with specific inhibitors by incubating TG neuronal cells with 10 μM SU 1498 (Sigma T4192) or 5 nM Ki 8751 (Sigma K1265) for 1 hr before adding 50 ng/ml VEGF-B. All neurite growth was imaged with an AxioObserver Z1 fluorescence microscope in the YFP channel attached to an AxioCam HRm digital camera (Zeiss) operated by AxioVision 4.0 software. Images were analyzed using Neurolucida 9 (MBF Bioscience) a quantitative nerve tracing software.
# [2] = system: Human corneal limbal epithelial (HCLE) cells; assay: In vitro scratch wound assay; type: cell-based; settings: 10 ng/ml
# Procedure: Human corneal limbal epithelial (HCLE) cells were cultured in 6-well plates until confluency as described. Pan, Z., Fukuoka et al., FASEB J. 27, 2756-2767 (2013). Cells were starved in KSFM medium (gibco 10724-011) without supplements for 24 h. Then a straight-line scratch mark was made in each well with a 200 ul pipette tip. KSFM medium supplemented with VEGF-B^186 (50 ng/ml) or EGF (10 ng/ml, Millipore 01-101) was added to the wells. Scratch areas were imaged at 0, 8, 24 and 48 hours at the same locations using the mark and find module of the Axiovision software and the wound closure analyzed by Photoshop.
# [3] = system: trigeminal ganglion (TG) neuronal cells; assay: Trigeminal ganglion neuronal growth assay; type: cell-based, mouse; settings: 50 ng/ml, three days in culture (FIG. 2A)
# Procedure: as §1
# [4] = system: corneal nerves of Thy-1-YFP mice; assay: Corneal nerve regeneration with combinations of VEGF-A and VEGF-B; type: in vivo, mouse; settings: ligand administered separately, two weeks post-injury (FIG. 14)
# Procedure: Thy-1-YFP mice were subjected to cornea epithelium debridement to ablate the superficial nerve endings that innervate the cornea Immediately after injury, the mice were treated with different combinations of VEGF-A and VEGF-B. As shown, combinations of VEGF ligands induce greater nerve regeneration in vivo.
# The observed effects were also recapitulated in vivo. Thy-1-YFP neurofluorescent mice were used to induce a corneal epithelium injury that results in ablation of the superficial nerve endings of the cornea. The mice were then treated with different combinations of VEGF-A and VEGF-B, and nerve regeneration was analyzed after two weeks post-injury.
molecule,measurement,setting,value
COc1cc2nccc(Oc3ccc(NC(=O)Nc4ccc(F)cc4F)c(F)c3)c2cc1OC [Ki 8751],inhibition of VEGF-B induced neurite growth,"[1]; 5 nM, 1 hr before 50 ng/ml VEGF-B",does not block
CC(C)c1cc(/C=C(\C#N)C(=O)NCCCc2ccccc2)cc(C(C)C)c1O [SU 1498],inhibition of VEGF-B induced neurite growth,"[1]; 10 μM, 1 hr before 50 ng/ml VEGF-B",does not block
"EGF: epidermal growth factor (Millipore 01-101), a known inducer of epithelial cell proliferation",time of complete confluence of the scratch area,[2],24 h
same,time to complete closure of the scratch area,[2],< 24 h
same,onset of cell growth into the scratch area,[2]; post-treatment,8 h
"soluble VEGFR1: recombinant human-soluble VEGFR1 (sVEGFR1/sFlt1, CellSciences CRF103) (protein) SKLKDPELSLKGTQHIMQAGQTLHLQCRGEAAHKWSLPEMVSKESERLSITKSACGRNGKQFCSTLTLNTAQANHTGFYSCKYLAVPTSKKKETESAIYIFISDTGRPFVEMYSEIPEIIHMTEGRELVIPCRVTSPNITVTLKKFPLDTLIPDGKRIIWDSRKGFIISNATYKEIGLLTCEATVNGHLYKTNYLTHRQTNTIIDVQISTPRPVKLLRGHTLVLNCTATTPLNTRVQMTWSYPDEKNKRASVRRRIDQSNSHANIFYSVLTIDKMQNKDKGLYTCRVRSGPSFKSVNTSVHIYDKAFITVKHRKQQVLETVAGKRSYRLSMKVKAFPSPEVVWLKDGLPATEKSARYLTRGYSLIIKDVTEEDAGNYTILLSIKQSNVFKNLTATLIVNVKPQIYEKAVSSFPDPALYPLGSRQILTCTAYGIPQPTIKWFWHPCNHNHSEARCDFCSNNEESFILDADSNMGNRIESITQRMAIIEGKNKMASTLVVADSRISGIYICIASNKVGTVGRNISFYITDVPNGFHVNLEKMPTEGEDLKLSCTVNKFLYRDVTWILLRTVNNRTMHYSISKQKMAITKEHSITLNLTIMNVSLQDSGTYACRARNVYTGEEILQKKEITIRGEHCNKKAVFSRISKFKSTRNDCTTQSNVKH",inhibition of VEGF-B induced neurite growth,[1]; equal molar concentration (2.6 nM) with 50 ng/ml VEGF-B,inhibited
"VEGF-A: vascular endothelial growth factor A; 232 amino acid protein, NextProt NX_P15692, SEQ ID NO. 2 (protein, listed as Homo sapiens) MNFLLSWVHWSLALLLYLHVKFMDVYQRSYCHPIETLVDIFQEYPDEIEYIFKPSCVPLMRCGGCCNDEGLECVPTEESNITMQIMRIKPHQGQHIGEMSFLQHNKCECRPKKDRARQEKKSVRGKGKGQKRKRKKSRYKSWSVYVGARCCLMPWSLPGPHPCGPCSERRKHLFVQDPQTCKCSCKNTDSRCKARQLELNERTCRCDKPRRHAKWSQAAPMAEGGGQNHHEV",pattern of neurite growth (elongation and branching),[3],mainly neurite elongation with few branching nodes
same,nerve regeneration,[4],induced greater nerve regeneration
